Data on 1 molecule can be found in PMC11023993, “Piperine, quercetin, and curcumin identified as promising natural products for topical treatment of cutaneous leishmaniasis” (Parasitology Research, 2024).

One may read the CC50 as the concentration that lowers cell viability or growth by half. High values mean better tolerance by the cells, low ones harm at low concentration. One may read the EC50 as the concentration at which the effect is half-maximal.

Bounds are passed on as bounds.

Series [1] in a line: MTT cytotoxicity assay in uninfected U-937 macrophages. The following applies: human. As to the method: U-937 (CRL-1593.2™) macrophages (ATCC, Manassas, VA, USA) were cultured in RPMI-1640 medium supplemented with 10% of FBS and incubated at 37 °C in 5% CO2, 95% humidity atmosphere. U-937 cells in the exponential growth phase were recovered, and washed by centrifugation at 1800 rpm for 10 min at room temperature; the pellet was then resuspended in supplemented RPMI 1640 medium and counted in a Neubauer chamber. The number was adjusted to 1 × 10^6 cells per mL and 100 µL was dispensed into each well of a 96-well plate. Then, another 100 µL of each serial dilution of QUE, PIP, CUR, doxorubicin, and amphotericin B was added to each well by triplicate and plates were incubated at 37 °C 5% CO2, 95% humidity atmosphere for 48 h.
The MTT solution is then added to the treated cells, where the yellow MTT is reduced to purple formazan by a variety of mitochondrial and cytosolic enzymes that are operational in viable cells. After 3 h of incubation with MTT, the formazan precipitates. Consequently, the growing medium was removed, the formazan was dissolved in DMSO, and the absorbance of the solution was measured at 570 nm using a microplate reader spectrophotometer (Varioskan Flash, Thermo Fisher Scientific).
Cells exposed to the standard cytotoxic drug doxorubicin were used as an internal control for toxicity (positive control) while cells incubated in the absence of any compound or drug were used as a control for viability (negative control). A solution of 0.5% DMSO was used as a blank solution. Non-specific absorbance was corrected by subtracting absorbance (OD) of the blank. Determinations were done by triplicate in at least two independent experiments.
The OD of viable cells that remained after treatment was compared to the OD of control cells that were not exposed to the drug. The LC50 (median lethal concentration) values and their statistical errors were calculated based on triplicates of the measurement in the independent assays. The LC50 values were determined by non-linear regression using Prism GraphPad 10.
The LC50 and the EC50 were calculated by Probit analysis using GraphPad Prism 10 (San Diego, CA, USA). Both cytotoxicity and leishmanicidal activity were defined by ranges of values of LC50 and EC50 in terms of high, moderate, or low as follows: high cytotoxicity for LC50 values < 100 µM, moderate cytotoxicity for LC50 values > 100 µM but < 200 µM, and low cytotoxicity for LC50 values > 200 µM. […] In addition, the cytotoxicity in U937 macrophages was correlated with the leishmanicidal activity by calculating the Selectivity Index (SI), using the equation: SI = LC50/EC50 (Indrayanto et al. [2021]).
(In general: Formazan colour is commonly taken as a measure of viable cells.)

Series [2] relates to L. braziliensis amastigotes. On the set-up: method as in Dos Santos et al. [2022]. The following applies: ref Dos Santos et al. [2022], read-out: antiamastigote activity EC50; cited from earlier work.
A further series has as its system L. major. More on the design: method as in Almadani et al. [2021]. The following applies: oral 50 mg/kg for 28 consecutive days; ref Almadani et al. [2021]; cited from earlier work.

On to `O=c1c(O)c(-c2ccc(O)c(O)c2)oc2cc(O)cc(O)c12` [Quercetin, quercetin], for which, in series [1], the CC50 at 48 h was over 662 µM. In addition, the EC50 in series [2] is 21 ± 2.5 µM. The “histopathological analysis of tissue sections” value with L. major is “reduction in inflammatory cell count, an increase in fibroblasts, and enhanced collagen deposition”.
